From ChEMBL document CHEMBL2311357, “Aminoalkyl derivatives of guanidine diaromatic minor groove binders with antiprotozoal activity” (J Med Chem, 2013)

Tests used:
[1] = tested on: Salmonidae; test: Binding affinity to salmon sperm DNA in 10 mM phosphate buffer assessed as change in melting temperature at 15 uM by thermal denaturation assay
[2] = tested on: Plasmodium falciparum; test: Antimalarial activity against erythrocytic stage of Plasmodium falciparum NF54 assessed as incorporation of [3H]hypoxanthine after 48 hrs by scintillation counting analysis; assay type: functional, organism-based
[3] = Selectivity index, ratio of IC50 for rat L6 cells to IC50 for Plasmodium falciparum NF54; assay type: toxicity, cell-based; conditions: L6 cells versus Plasmodium falciparum NF54, read-out: Ratio IC50
[4] = tested on: L6; test: Cytotoxicity against rat L6 cells after 70 hrs by resazurin reduction assay; assay type: cell-based; conditions: L6, 70 h
[5] = tested on: Trypanosoma brucei rhodesiense; test: Antitrypanosomal activity against Trypanosoma brucei rhodesiense STIB900 after 70 hrs by resazurin reduction assay; assay type: functional, organism-based; conditions: STIB900, 70 h
[6] = Selectivity index, ratio of IC50 for rat L6 cells to IC50 for Trypanosoma brucei rhodesiense STIB900; assay type: toxicity, cell-based; conditions: L6 cells versus Trypanosoma brucei rhodesiense STIB900, read-out: Ratio IC50
[7] = tested on: unidentified; test: Binding affinity to poly(dA-dT) DNA (unknown origin) in PIPES buffer assessed as change in melting temperature
[8] = tested on: DNA; test: Binding affinity to calf thymus DNA in Tris-Hcl buffer assessed as change in melting temperature; assay type: nucleic-acid assay; conditions: Bos taurus
[9] = tested on: DNA; test: Binding affinity to calf thymus DNA in MES buffer assessed as change in melting temperature; assay type: nucleic-acid assay; conditions: Bos taurus
[10] = Binding affinity to poly(dA-dT) DNA (unknown origin) in Tris-Hcl buffer assessed as change in melting temperature

| SMILES | ΔTm [1] [°C] | IC50 [2] [µM] | selectivity ratio [3] | IC50 [4] [µM] | other results |
| --- | --- | --- | --- | --- | --- |
| N=C(N)Nc1ccc(C(=O)c2ccc(NC(=N)N)cc2)cc1 | 4.2 |  |  |  |  |
| N=C(N)Nc1ccc(Cc2ccc(NC(=O)CCCN)cc2)cc1 | 1 | 2.62 | 79 | 207 |  |
| N=C(N)Nc1ccc(Oc2ccc(NC(=O)CCCCCCCCCCN)cc2)cc1 | 2 | 1.41 | 44 | 62.3 |  |
| N=C(N)Nc1ccc(Nc2ccc(NC(=O)CCCCCCCN)cc2)cc1 | 2 |  |  |  |  |
| N=C(N)Nc1ccc(C(=O)c2ccc(N)cc2)cc1 | 0 |  |  |  |  |
| N=C(N)Nc1ccc(Cc2ccc(NC(=O)CCCCCCCCCCCN)cc2)cc1 | 0.1 | 2.32 | 10 | 23.8 |  |
| N=C(N)Nc1ccc(CCc2ccc(NC(=O)CCCN)cc2)cc1 | 5 | 1.14 | 116 | 133 | IC50 [5]: 13.3 µM; selectivity ratio [6]: 10 |
| N=C(N)Nc1ccc(CCc2ccc(NC(=O)CCCCN)cc2)cc1 | 5.1 | 1.06 | 103 | 109 | IC50 [5]: 20.2 µM; selectivity ratio [6]: 5 |
| N=C(N)Nc1ccc(Nc2ccc(NC(=O)CCCN)cc2)cc1 | 1 | 1.2 | 106 | 127 |  |
| N=C(N)Nc1ccc(CCc2ccc(NC(=O)CCCCCCCN)cc2)cc1 | 2 |  |  |  |  |
| N=C(N)Nc1ccc(CCc2ccc(NC(=O)CCCCCCCCCCN)cc2)cc1 | 1.1 | 5.79 | 12 | 70.6 |  |
| N=C(N)Nc1ccc(Oc2ccc(N)cc2)cc1 | 2 |  |  |  |  |
| N=C(N)Nc1ccc(Oc2ccc(NC(=O)CCCCCCCN)cc2)cc1 | 2.1 | 0.149 | 913 | 136 | IC50 [5]: 31.9 µM; selectivity ratio [6]: 4 |
| N=C(N)Nc1ccc(C(=O)c2ccc(NC(=O)CCCCCCCCCCCN)cc2)cc1 | 2.1 | 1.98 | 5 | 10.6 |  |
| N=C(N)Nc1ccc(Nc2ccc(NC(=N)N)cc2)cc1 | 8 |  |  |  |  |
| N=C(N)Nc1ccc(Cc2ccc(NC(=O)CCCCN)cc2)cc1 | 4 | 0.589 | 179 | 105 |  |
| N=C(N)Nc1ccc(C(=O)c2ccc(NC(=O)CCCCN)cc2)cc1 | 5.2 | 2.55 | 55 | 140 | IC50 [5]: 121 µM; selectivity ratio [6]: 1 |

| SMILES | ΔTm [1] [°C] | IC50 [2] [µM] | selectivity ratio [3] | IC50 [4] [µM] | other results |
| --- | --- | --- | --- | --- | --- |
| N=C(N)Nc1ccc(C(=O)c2ccc(NC(=O)CCCCCCCCCCN)cc2)cc1 | 2 |  |  |  |  |
| Nc1nc(N)nc(Nc2ccc([As]3SCC(CO)S3)cc2)n1 (configuration not stated) [MELARSOPROL] |  |  |  |  | IC50 [5]: 0.0055 µM |
| N=C(N)Nc1ccc(Cc2ccc(NC(=N)N)cc2)cc1 | 8.1 |  |  |  |  |
| N=C(N)Nc1ccc(Cc2ccc(NC(=O)CCCCCCCN)cc2)cc1 | 0.1 |  |  |  |  |
| N=C(N)Nc1ccc(Oc2ccc(NC(=O)CCCCN)cc2)cc1 | 6 | 0.106 | 316 | 33.5 | IC50 [5]: 13.1 µM; selectivity ratio [6]: 3 |
| N=C(N)c1ccc(OCCCCCOc2ccc(C(=N)N)cc2)cc1 [PENTAMIDINE] |  | 0.027 | 56 | 1.51 | ΔTm [7]: 12.8 °C; ΔTm [8]: 20.6 °C; ΔTm [9]: 10.6 °C; IC50 [5]: 0.002 µM; selectivity ratio [6]: 755; ΔTm [10]: 11.1 °C |
| N=C(N)Nc1ccc(Cc2ccc(N)cc2)cc1 | 3 |  |  |  |  |
| N=C(N)Nc1ccc(Nc2ccc(NC(=O)CCCCCCCCCCN)cc2)cc1 | 3.1 | 3.79 | 41 | 157 | IC50 [5]: 85.4 µM; selectivity ratio [6]: 2 |
| N=C(N)Nc1ccc(CCc2ccc(NC(=O)CCCCCCCCCCCN)cc2)cc1 | 1.1 |  |  |  |  |
| N=C(N)Nc1ccc(Oc2ccc(NC(=O)CCCN)cc2)cc1 | 1.2 | 0.88 | 197 | 173 |  |
| N=C(N)Nc1ccc(CCc2ccc(N)cc2)cc1 | 0.1 |  |  |  |  |
| N=C(N)Nc1ccc(Nc2ccc(NC(=O)CCCCN)cc2)cc1 | 6.1 | 1.46 | 153 | 223 | IC50 [5]: 57.7 µM; selectivity ratio [6]: 4 |
| N=C(N)Nc1ccc(C(=O)c2ccc(NC(=O)CCCN)cc2)cc1 | 5.1 |  |  |  |  |
| N=C(N)Nc1ccc(Cc2ccc(NC(=O)CCCCCCCCCCN)cc2)cc1 | 0 | 2.02 | 15 | 30.3 |  |
| N=C(N)Nc1ccc(Nc2ccc(N)cc2)cc1 | 2.1 |  |  |  |  |
| N=C(N)Nc1ccc(Oc2ccc(NC(=O)CCCCCCCCCCCN)cc2)cc1 | 2 | 1.71 | 13 | 22.4 |  |
| N=C(N)Nc1ccc(Nc2ccc(NC(=O)CCCCCCCCCCCN)cc2)cc1 | 5 | 2.71 | 4 | 11.9 | IC50 [5]: 4.06 µM; selectivity ratio [6]: 3 |
